Some test systems named below: KM12 colon; SK-OV-3 ovarian; HOP-62 NSCLC; LOX IMVI melanoma; A549 NSCLC; SNB-19 CNS; SK-MEL-28 melanoma; SN12C renal; HCT-15 colon; SR leukemia.
Assay in all cases: NCI anticancer screen, dose series, 48 h

Molecules are shown by their SMILES. Several values for one entry are separate records, joined by “and”; a condition that tells them apart may be missing. Identical values can stand only once.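 Cells were grown in 96-well plates and exposed to each compound for 48 hours at five concentrations; endpoints were interpolated linearly between bracketing concentrations, or set to the highest concentration if not reached. GI50 is the concentration that inhibits growth by half. TGI marks complete inhibition of growth.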

Regarding `CCCCCCCCCCCCCCCCCCNCc1ccc(Cl)cc1`, the GI50 in the experiment with KM12 colon was 2.5 µM; with SK-OV-3 ovarian, 4.02 µM; in the experiment with HOP-62 NSCLC it was 3.17 µM; in the experiment on LOX IMVI melanoma, 2.04 µM; in the experiment with A549 NSCLC it was 2.52 µM; in the experiment on SNB-19 CNS, 3.31 µM. The GI50 in the experiment with SK-MEL-28 melanoma is 13.8 µM; in the experiment with SN12C renal, 3.63 µM; in the experiment with HCT-15 colon, 1.93 µM; with SR leukemia it was 2.08 µM. Further, the TGI is 6.54 µM in the experiment on KM12 colon; 16.9 µM with SK-OV-3 ovarian; 12.8 µM with HOP-62 NSCLC; 4.92 µM in the experiment with LOX IMVI melanoma; 5.65 µM in the experiment on A549 NSCLC; 12 µM with SNB-19 CNS. Further, the TGI turned out to be 28.8 µM with SK-MEL-28 melanoma, 13.8 µM in the experiment on SN12C renal, 4.71 µM in the experiment with HCT-15 colon and 6.58 µM in the experiment with SR leukemia.

With `O=c1c2ccccc2[nH]c2c(O)ccc(O)c12`, the TGI in the experiment with KM12 colon was more than 100 µM; with SK-OV-3 ovarian, 65.9 µM; with HOP-62 NSCLC, more than 100 µM; in the experiment with LOX IMVI melanoma, 33.9 µM; with A549 NSCLC it was more than 100 µM; in the experiment with SNB-19 CNS, more than 100 µM. Besides, the TGI in the experiment on SK-MEL-28 melanoma turned out to be 35.2 µM; in the experiment on SN12C renal, 28.5 µM; in the experiment with HCT-15 colon it was 37.2 µM; with SR leukemia, 39.2 µM.

As to `COC(=O)c1cccc2c3ccccc3c3ccccc3c12`, the TGI in the experiment on KM12 colon was more than 100 µM; in the experiment with SK-OV-3 ovarian it was 75.7 µM; in the experiment on HOP-62 NSCLC, more than 100 µM; in the experiment on LOX IMVI melanoma, 81 µM; in the experiment with A549 NSCLC, more than 100 µM; in the experiment on SNB-19 CNS it was more than 100 µM. In addition, the TGI with SK-MEL-28 melanoma was more than 100 µM; with SN12C renal it was more than 100 µM; in the experiment on HCT-15 colon it was more than 100 µM; with SR leukemia, 87.7 µM.

As for `Cc1ccc(Nc2cc(Cl)c([N+](=O)[O-])cc2[N+](=O)[O-])cc1`, the GI50 in the experiment with KM12 colon is 3.24 µM; in the experiment on SK-OV-3 ovarian, 4.55 µM; in the experiment with HOP-62 NSCLC, 5.82 µM; in the experiment with LOX IMVI melanoma it was 1.15 µM; in the experiment on A549 NSCLC, 7.76 µM; in the experiment on SNB-19 CNS, 6.33 µM. Also, the GI50 in the experiment with SK-MEL-28 melanoma is 2.77 µM; in the experiment on SN12C renal it was 4.1 µM; in the experiment on HCT-15 colon it was 4.12 µM; in the experiment with SR leukemia, 0.927 µM. Further, the TGI came out at 8.8 µM in the experiment with KM12 colon; 13.1 µM in the experiment on SK-OV-3 ovarian; 16.2 µM in the experiment on HOP-62 NSCLC; 5.62 µM with LOX IMVI melanoma; 22.1 µM in the experiment with A549 NSCLC; 17.7 µM in the experiment on SNB-19 CNS. Moreover, the TGI was 7.27 µM in the experiment with SK-MEL-28 melanoma, 14.6 µM in the experiment with SN12C renal, 16.5 µM in the experiment with HCT-15 colon and 18.1 µM in the experiment on SR leukemia.

As for `COCCOCCOCc1n(Cc2ccc3ccccc3c2)c2ccccc2[n+]1Cc1ccc2ccccc2c1`, the GI50 in the experiment with KM12 colon is 0.352 µM; in the experiment with SK-OV-3 ovarian it was 1.14 µM; in the experiment with HOP-62 NSCLC, 1.17 µM; in the experiment with LOX IMVI melanoma, 0.419 µM; in the experiment on A549 NSCLC, 1.33 µM; with SNB-19 CNS, 0.377 µM. Besides, the GI50 was 0.503 µM in the experiment on SK-MEL-28 melanoma, 0.372 µM with SN12C renal, 1.69 µM with HCT-15 colon and 0.36 µM in the experiment on SR leukemia. In addition, the TGI in the experiment with KM12 colon amounted to 1.29 µM; in the experiment with SK-OV-3 ovarian, 2.49 µM; in the experiment on HOP-62 NSCLC, 2.59 µM; with LOX IMVI melanoma it was 1.67 µM; in the experiment on A549 NSCLC it was 3.84 µM; in the experiment on SNB-19 CNS it was 1.59 µM. Besides, the TGI in the experiment with SK-MEL-28 melanoma was 1.92 µM; in the experiment on SN12C renal, 1.46 µM; in the experiment with HCT-15 colon, 3.36 µM; in the experiment on SR leukemia it was 1.6 µM.

On to `N#Cc1ccc(/C=C(/C(=O)c2ccccc2)c2ccccc2)cc1`, for which the TGI with KM12 colon was 10.1 µM; in the experiment on SK-OV-3 ovarian it was more than 54.6 µM; in the experiment on HOP-62 NSCLC it was 40.2 µM; in the experiment on LOX IMVI melanoma, 10.6 µM; with A549 NSCLC, 44.2 µM; in the experiment with SNB-19 CNS, 50.1 µM. The TGI in the experiment on SK-MEL-28 melanoma stood at 32.7 µM; in the experiment on SN12C renal, 25 µM; in the experiment with HCT-15 colon, 30.4 µM; with SR leukemia, 8.4 µM.

As to `CCOC(=O)Nc1nc2ccccc2[nH]1`, the GI50 was 5.16 µM and 2.96 µM with KM12 colon; 4.69 µM and 4.19 µM in the experiment on SK-OV-3 ovarian; 6.08 µM and > 22.9 µM in the experiment with HOP-62 NSCLC; 7.1 µM and 6.82 µM with LOX IMVI melanoma; 7.08 µM and 9.89 µM with A549 NSCLC; 10.5 µM and 4.83 µM with SNB-19 CNS. Besides, the GI50 in the experiment with SK-MEL-28 melanoma is 8.43 µM; in the experiment with HCT-15 colon it was 3.89 µM and 4.14 µM; in the experiment on SR leukemia it was 2.64 µM and 1.1 µM. The TGI with KM12 colon, with SK-OV-3 ovarian, in the experiment with HOP-62 NSCLC, in the experiment with LOX IMVI melanoma, with A549 NSCLC and with SNB-19 CNS was more than 100 µM throughout. The TGI in the experiment with SK-MEL-28 melanoma, with SN12C renal, in the experiment with HCT-15 colon and in the experiment with SR leukemia was more than 100 µM each time.

With `Cc1cc(C(=O)Nc2n[nH]c3ccccc23)n[nH]1`, the GI50 in the experiment with KM12 colon is 28.9 µM; in the experiment on SK-OV-3 ovarian it was more than 100 µM; in the experiment on HOP-62 NSCLC, more than 100 µM; in the experiment on LOX IMVI melanoma, more than 100 µM; with A549 NSCLC, more than 100 µM; in the experiment on SNB-19 CNS, more than 100 µM. Besides, the GI50 with SK-MEL-28 melanoma is more than 100 µM; in the experiment on SN12C renal, more than 100 µM; with HCT-15 colon, more than 100 µM; in the experiment on SR leukemia, 80.6 µM. Also, the TGI in the experiment with KM12 colon, in the experiment on SK-OV-3 ovarian, with HOP-62 NSCLC, with LOX IMVI melanoma, in the experiment on A549 NSCLC and in the experiment with SNB-19 CNS was more than 100 µM each time. The TGI with SK-MEL-28 melanoma, in the experiment on SN12C renal, in the experiment on HCT-15 colon and with SR leukemia was more than 100 µM in each case.

For `CC[C@@]1(OC(=O)C(N)CCCCN)C(=O)OCc2c1cc1n(c2=O)Cc2cc3ccccc3nc2-1` (some centres undefined), the TGI with KM12 colon was 5.26 µM; in the experiment with SK-OV-3 ovarian it was 12 µM; in the experiment with HOP-62 NSCLC, 0.0667 µM; in the experiment on LOX IMVI melanoma, 0.18 µM; with A549 NSCLC it was 2.81 µM; with SNB-19 CNS it was 12.2 µM. The TGI in the experiment on SK-MEL-28 melanoma is 16.1 µM; in the experiment with SN12C renal, 1.63 µM; with HCT-15 colon, 15.6 µM; with SR leukemia, less than 0.0217 µM.

Source of the values: PubChem BioAssay (NCI).
